Reference: patent US6635620B1, “Hydroxyproline derivatives” (Japan Bioproducts Ind. Co., Ltd., priority 1998, dated 2003)

System: BHK-21 cells
Test: BHK-21 cell proliferation (cell growth) activity
Format: cell-based, hamster
Conditions: 3 days culture, compared with medium control
Protocol: Cell growth activities of the samples were measured as BHK (baby hamster kidney) −21 cell proliferation activity, following the known method (Planta Med., 62,115-118,1996, and others). In detail, BHK-21 cells (1×10^4) were cultured in Eagle's minimum essential medium supplemented with 5% fetal bovine serum and 2 mM glutamine, for 3 days at 37° C. with different concentration (μg/ml) of test samples in 5% CO2/air at pH 7.2. The cells were treated with a mixture of trypsin and 0.02% EDTA solution to detach the cells from each well. The cells were harvested and the numbers of total viable cells were counted. The viability of the cells was determined by the method of dye-exclusion test using 0.4% trypan blue solution. The cell growth activity (%) was determined by comparing with the control cells (medium control).

Structure (SMILES): O=C1NC(CO)C(=O)N2C[C@H](O)CC12 (stereo partly shown) [Compound 2, 3′-Hydroxymethyl-4-hydroxypyrrolido [1,2-f] 2′, 5′-piperazinedione]
- cell growth activity: showed the cell growth activity
